Experimental data from PubChem BioAssay (NCI).
Where “and” joins values, the source holds several entries; their conditions need not be identical. Identical values can stand only once.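 The compound was tested at five concentrations on cells cultured in 96-well plates, with a 48-hour exposure period. GI50 marks 50% less growth. TGI: total growth inhibition.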

Legend:
Experiment in all cases: growth of human tumour cells (NCI), 48 h
786-0 renal = system: 786-0 renal
A498 renal = system: A498 renal
A549 NSCLC = system: A549 NSCLC
ACHN renal = system: ACHN renal
BT-549 breast = system: BT-549 breast
CAKI-1 renal = system: CAKI-1 renal
CCRF-CEM leukemia = system: CCRF-CEM leukemia
COLO 205 colon = system: COLO 205 colon
DU-145 prostate = system: DU-145 prostate
EKVX NSCLC = system: EKVX NSCLC
HCC-2998 colon = system: HCC-2998 colon
HCT-116 colon = system: HCT-116 colon
HCT-15 colon = system: HCT-15 colon
HL-60(TB) leukemia = system: HL-60(TB) leukemia
HOP-62 NSCLC = system: HOP-62 NSCLC
HOP-92 NSCLC = system: HOP-92 NSCLC
HS 578T breast = system: HS 578T breast
HT29 colon = system: HT29 colon
IGROV1 ovarian = system: IGROV1 ovarian
K-562 leukemia = system: K-562 leukemia
KM12 colon = system: KM12 colon
LOX IMVI melanoma = system: LOX IMVI melanoma
M14 melanoma = system: M14 melanoma
MALME-3M melanoma = system: MALME-3M melanoma
MCF7 breast = system: MCF7 breast
MDA-MB-231 breast = system: MDA-MB-231 breast
MDA-MB-435 = system: MDA-MB-435
MDA-MB-468 breast = system: MDA-MB-468 breast
NCI-H226 lung = system: NCI-H226 lung
NCI-H23 lung = system: NCI-H23 lung
NCI-H460 lung = system: NCI-H460 lung
NCI-H522 lung = system: NCI-H522 lung
OVCAR-3 ovarian = system: OVCAR-3 ovarian
OVCAR-4 ovarian = system: OVCAR-4 ovarian
OVCAR-5 ovarian = system: OVCAR-5 ovarian
OVCAR-8 ovarian = system: OVCAR-8 ovarian
PC-3 prostate = system: PC-3 prostate
RPMI-8226 leukemia = system: RPMI-8226 leukemia
RXF 393 renal = system: RXF 393 renal
SF-268 CNS = system: SF-268 CNS
SF-295 CNS = system: SF-295 CNS
SF-539 CNS = system: SF-539 CNS
SK-MEL-2 melanoma = system: SK-MEL-2 melanoma
SK-MEL-28 melanoma = system: SK-MEL-28 melanoma
SK-MEL-5 melanoma = system: SK-MEL-5 melanoma
SK-OV-3 ovarian = system: SK-OV-3 ovarian
SN12C renal = system: SN12C renal
SNB-19 CNS = system: SNB-19 CNS
SNB-75 CNS = system: SNB-75 CNS
SR leukemia = system: SR leukemia
SW-620 colon = system: SW-620 colon
T-47D breast = system: T-47D breast
TK-10 renal = system: TK-10 renal
U251 CNS = system: U251 CNS
UACC-257 melanoma = system: UACC-257 melanoma
UACC-62 melanoma = system: UACC-62 melanoma
UO-31 renal = system: UO-31 renal

Question: For `Cn1nc(C(F)(F)F)cc1-c1cc(Cl)c(COc2ccc(Cl)cc2)c(-c2ccc(Cl)c(C(F)(F)F)c2)c1O`, which GI50 (786-0 renal) is on record?
Answer: 2.62 µM

Question: What about the TGI (786-0 renal) of the same compound?
Answer: 7.97 µM

Question: And the GI50 (A498 renal)?
Answer: 2.53 µM

Question: And the TGI (A498 renal)?
Answer: 7.3 µM

Question: What about the GI50 (A549 NSCLC) of the same compound?
Answer: 3.36 µM

Question: And the TGI (A549 NSCLC)?
Answer: 15.5 µM

Question: And the GI50 (ACHN renal)?
Answer: 2.23 µM

Question: What about the TGI (ACHN renal) of the same compound?
Answer: 9.21 µM

Question: And the GI50 (BT-549 breast)?
Answer: 1.85 µM

Question: What about the TGI (BT-549 breast) of the same compound?
Answer: 7.48 µM

Question: What about the GI50 (CAKI-1 renal) of the same compound?
Answer: 2.17 µM

Question: What about the TGI (CAKI-1 renal) of the same compound?
Answer: 7.56 µM

Question: What about the GI50 (CCRF-CEM leukemia) of the same compound?
Answer: 1.75 µM

Question: What about the TGI (CCRF-CEM leukemia) of the same compound?
Answer: 10.8 µM

Question: And the GI50 (COLO 205 colon)?
Answer: 1.38 µM

Question: What about the TGI (COLO 205 colon) of the same compound?
Answer: 2.75 µM

Question: And the GI50 (DU-145 prostate)?
Answer: 3.08 µM

Question: What about the TGI (DU-145 prostate) of the same compound?
Answer: 14.1 µM

Question: And the GI50 (EKVX NSCLC)?
Answer: 2.51 µM

Question: What about the TGI (EKVX NSCLC) of the same compound?
Answer: 10.4 µM

Question: And the GI50 (HCC-2998 colon)?
Answer: 1.68 µM

Question: And the TGI (HCC-2998 colon)?
Answer: 10.5 µM

Question: And the GI50 (HCT-116 colon)?
Answer: 1.71 µM

Question: And the TGI (HCT-116 colon)?
Answer: 10.5 µM

Question: And the GI50 (HCT-15 colon)?
Answer: 1.28 µM

Question: And the TGI (HCT-15 colon)?
Answer: 7.14 µM

Question: What about the GI50 (HL-60(TB) leukemia) of the same compound?
Answer: 2.18 µM

Question: What about the TGI (HL-60(TB) leukemia) of the same compound?
Answer: 5.69 µM

Question: And the GI50 (HOP-62 NSCLC)?
Answer: 3.26 µM

Question: And the TGI (HOP-62 NSCLC)?
Answer: 10.8 µM

Question: What about the GI50 (HOP-92 NSCLC) of the same compound?
Answer: 1.61 µM

Question: What about the TGI (HOP-92 NSCLC) of the same compound?
Answer: 4.38 µM

Question: What about the GI50 (HS 578T breast) of the same compound?
Answer: 1.82 µM

Question: What about the TGI (HS 578T breast) of the same compound?
Answer: 6.58 µM

Question: What about the GI50 (HT29 colon) of the same compound?
Answer: 3.36 µM

Question: And the TGI (HT29 colon)?
Answer: 14.6 µM

Question: What about the GI50 (IGROV1 ovarian) of the same compound?
Answer: 2.92 µM

Question: What about the TGI (IGROV1 ovarian) of the same compound?
Answer: 14.3 µM

Question: And the GI50 (K-562 leukemia)?
Answer: 0.509 µM

Question: What about the TGI (K-562 leukemia) of the same compound?
Answer: > 100 µM

Question: And the GI50 (KM12 colon)?
Answer: 2.85 µM

Question: And the TGI (KM12 colon)?
Answer: 10.8 µM

Question: What about the GI50 (LOX IMVI melanoma) of the same compound?
Answer: 3.11 µM

Question: And the TGI (LOX IMVI melanoma)?
Answer: 10.6 µM

Question: What about the GI50 (M14 melanoma) of the same compound?
Answer: 2.74 µM

Question: What about the TGI (M14 melanoma) of the same compound?
Answer: 8.16 µM

Question: What about the GI50 (MALME-3M melanoma) of the same compound?
Answer: 1.96 µM

Question: What about the TGI (MALME-3M melanoma) of the same compound?
Answer: 5.16 µM

Question: What about the GI50 (MCF7 breast) of the same compound?
Answer: 1.26 µM

Question: And the TGI (MCF7 breast)?
Answer: 10 µM

Question: And the GI50 (MDA-MB-231 breast)?
Answer: 1.88 µM

Question: What about the TGI (MDA-MB-231 breast) of the same compound?
Answer: 5.2 µM

Question: And the GI50 (MDA-MB-435)?
Answer: 3.02 µM

Question: And the TGI (MDA-MB-435)?
Answer: 10.3 µM

Question: What about the GI50 (MDA-MB-468 breast) of the same compound?
Answer: 1.95 µM

Question: And the TGI (MDA-MB-468 breast)?
Answer: 8.03 µM

Question: And the GI50 (NCI-H226 lung)?
Answer: 2.72 µM

Question: And the TGI (NCI-H226 lung)?
Answer: 9.52 µM

Question: And the GI50 (NCI-H23 lung)?
Answer: 1.45 µM

Question: What about the TGI (NCI-H23 lung) of the same compound?
Answer: 4.77 µM

Question: And the GI50 (NCI-H460 lung)?
Answer: 1.27 µM

Question: What about the TGI (NCI-H460 lung) of the same compound?
Answer: 7.3 µM

Question: And the GI50 (NCI-H522 lung)?
Answer: 1.79 µM

Question: What about the TGI (NCI-H522 lung) of the same compound?
Answer: 13.4 µM

Question: And the GI50 (OVCAR-3 ovarian)?
Answer: 2.26 µM

Question: What about the TGI (OVCAR-3 ovarian) of the same compound?
Answer: 12.6 µM

Question: And the GI50 (OVCAR-4 ovarian)?
Answer: 3.11 µM

Question: What about the TGI (OVCAR-4 ovarian) of the same compound?
Answer: 13.5 µM

Question: What about the GI50 (OVCAR-5 ovarian) of the same compound?
Answer: 3.83 µM

Question: What about the TGI (OVCAR-5 ovarian) of the same compound?
Answer: 13.5 µM

Question: And the GI50 (OVCAR-8 ovarian)?
Answer: 3.09 µM

Question: What about the TGI (OVCAR-8 ovarian) of the same compound?
Answer: 14.5 µM

Question: What about the GI50 (PC-3 prostate) of the same compound?
Answer: 1.57 µM

Question: What about the TGI (PC-3 prostate) of the same compound?
Answer: 10.5 µM

Question: And the GI50 (RPMI-8226 leukemia)?
Answer: 1.06 µM

Question: And the TGI (RPMI-8226 leukemia)?
Answer: 5.4 µM

Question: And the GI50 (RXF 393 renal)?
Answer: 1.64 µM

Question: And the TGI (RXF 393 renal)?
Answer: 5.54 µM

Question: What about the GI50 (SF-268 CNS) of the same compound?
Answer: 2.33 µM

Question: And the TGI (SF-268 CNS)?
Answer: 13.1 µM

Question: What about the GI50 (SF-295 CNS) of the same compound?
Answer: 1.88 µM

Question: What about the TGI (SF-295 CNS) of the same compound?
Answer: 4.12 µM

Question: And the GI50 (SF-539 CNS)?
Answer: 2.06 µM

Question: And the TGI (SF-539 CNS)?
Answer: 5.69 µM

Question: What about the GI50 (SK-MEL-2 melanoma) of the same compound?
Answer: 2.09 µM

Question: What about the TGI (SK-MEL-2 melanoma) of the same compound?
Answer: 5.3 µM

Question: And the GI50 (SK-MEL-28 melanoma)?
Answer: 2.88 µM

Question: What about the TGI (SK-MEL-28 melanoma) of the same compound?
Answer: 11.7 µM

Question: What about the GI50 (SK-MEL-5 melanoma) of the same compound?
Answer: 1.18 µM

Question: And the TGI (SK-MEL-5 melanoma)?
Answer: 2.71 µM

Question: What about the GI50 (SK-OV-3 ovarian) of the same compound?
Answer: 3.02 µM

Question: And the TGI (SK-OV-3 ovarian)?
Answer: 11 µM

Question: And the GI50 (SN12C renal)?
Answer: 1.26 µM

Question: What about the TGI (SN12C renal) of the same compound?
Answer: 7.7 µM

Question: And the GI50 (SNB-19 CNS)?
Answer: 2.25 µM

Question: And the TGI (SNB-19 CNS)?
Answer: 13.1 µM

Question: What about the GI50 (SNB-75 CNS) of the same compound?
Answer: 2 µM

Question: And the TGI (SNB-75 CNS)?
Answer: 8.07 µM

Question: What about the GI50 (SR leukemia) of the same compound?
Answer: 2.66 µM

Question: What about the TGI (SR leukemia) of the same compound?
Answer: > 100 µM

Question: What about the GI50 (SW-620 colon) of the same compound?
Answer: 3.13 µM

Question: And the TGI (SW-620 colon)?
Answer: 12.1 µM

Question: And the GI50 (T-47D breast)?
Answer: 0.724 µM

Question: What about the TGI (T-47D breast) of the same compound?
Answer: 8.7 µM

Question: What about the GI50 (TK-10 renal) of the same compound?
Answer: 3.3 µM

Question: And the TGI (TK-10 renal)?
Answer: 15.6 µM

Question: And the GI50 (U251 CNS)?
Answer: 2.42 µM

Question: What about the TGI (U251 CNS) of the same compound?
Answer: 14.3 µM

Question: And the GI50 (UACC-257 melanoma)?
Answer: 2.67 µM

Question: And the TGI (UACC-257 melanoma)?
Answer: 10.5 µM

Question: And the GI50 (UACC-62 melanoma)?
Answer: 1.45 µM

Question: What about the TGI (UACC-62 melanoma) of the same compound?
Answer: 4.88 µM

Question: And the GI50 (UO-31 renal)?
Answer: 2.57 µM

Question: What about the TGI (UO-31 renal) of the same compound?
Answer: 8.6 µM

Question: Which results are given for `O=C(CC12CC3CC(CC(C3)C1)C2)NCCOCCOCCOCCNC(=O)c1cc2c(o1)C(=O)c1ccccc1C2=O`?
Answer: GI50 (MDA-MB-468 breast): 1.39 µM; TGI (MDA-MB-468 breast): 4.36 µM

Question: What does the source list for `O=P([O-])(O)OP(=O)([O-])O.[NH-][C@@H]1CCCC[C@H]1[NH-].[Pt+4]`?
Answer: GI50 (MDA-MB-468 breast): 21.5 µM and 8.19 µM; TGI (MDA-MB-468 breast): > 100 µM and 27.7 µM

Question: Which GI50 (MDA-MB-468 breast) does the source give for `CN(C)C1CCN(C(=O)c2ccc(NC(=O)Nc3ccc(-c4nc(N5CCOCC5)nc(N5CCOCC5)n4)cc3)cc2)CC1` here?
Answer: 0.00749 µM and 0.013 µM

Question: And the TGI (MDA-MB-468 breast)?
Answer: 0.0636 µM and 0.185 µM

Question: How did the GI50 (MDA-MB-468 breast) turn out when `CCN=c1cc2sc3cc(NCC)c(C)cc3nc-2cc1C` was run?
Answer: 0.86 µM

Question: And the TGI (MDA-MB-468 breast)?
Answer: 5.57 µM
